Test results as given in US7829572B2 (Pfizer Inc, priority 2006, dated 2010).

Biological target: T1, calcium receptor (CasR) (Homo sapiens, UniProt P41180)
T1 construct: expressed in transfected cells; host or cells: HEK 293
T1 sequence (P41180 20-1078): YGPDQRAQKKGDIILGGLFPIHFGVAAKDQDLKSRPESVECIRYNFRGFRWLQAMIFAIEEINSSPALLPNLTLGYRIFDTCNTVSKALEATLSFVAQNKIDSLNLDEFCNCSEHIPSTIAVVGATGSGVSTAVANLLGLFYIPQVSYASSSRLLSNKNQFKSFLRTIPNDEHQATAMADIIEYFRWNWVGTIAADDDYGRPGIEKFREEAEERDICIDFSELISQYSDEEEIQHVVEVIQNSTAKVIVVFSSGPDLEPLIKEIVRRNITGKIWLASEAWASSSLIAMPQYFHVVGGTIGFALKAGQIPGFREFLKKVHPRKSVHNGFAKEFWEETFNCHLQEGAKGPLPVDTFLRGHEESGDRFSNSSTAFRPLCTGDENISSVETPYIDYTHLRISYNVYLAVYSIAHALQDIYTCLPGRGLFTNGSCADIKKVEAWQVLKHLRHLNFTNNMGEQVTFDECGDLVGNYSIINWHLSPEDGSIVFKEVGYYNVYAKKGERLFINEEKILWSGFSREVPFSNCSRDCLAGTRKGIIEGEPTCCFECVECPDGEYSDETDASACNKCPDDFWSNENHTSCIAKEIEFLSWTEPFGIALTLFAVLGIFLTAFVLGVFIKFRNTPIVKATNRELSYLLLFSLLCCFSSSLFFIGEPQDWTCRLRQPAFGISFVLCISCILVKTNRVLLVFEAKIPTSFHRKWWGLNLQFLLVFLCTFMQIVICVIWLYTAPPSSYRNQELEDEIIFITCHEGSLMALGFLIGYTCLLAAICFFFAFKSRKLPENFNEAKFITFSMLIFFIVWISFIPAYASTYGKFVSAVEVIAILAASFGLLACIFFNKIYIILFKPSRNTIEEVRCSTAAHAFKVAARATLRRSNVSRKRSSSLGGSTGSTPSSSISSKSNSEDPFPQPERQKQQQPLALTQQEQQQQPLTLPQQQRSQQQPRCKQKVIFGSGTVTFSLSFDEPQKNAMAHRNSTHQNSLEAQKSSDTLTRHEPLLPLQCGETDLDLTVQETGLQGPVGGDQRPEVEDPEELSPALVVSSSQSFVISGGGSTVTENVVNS
Test: FLIPR Assay for Evaluating the Potency and Selectivity of Test Compounds
Format: cell-based
Settings: HEK 293 cells expressing CasR; 30 minutes pre-incubation; stimulation by 1.7 mM Ca2+; read 42 seconds after stimulation
Description: FLIPR Assay for Evaluating the Potency and Selectivity of Test Compounds
Human kidney cell (HEK 293) expressing the calcium receptor (CasR) are used to detect antagonists of the receptor using Fluorometric imaging plate reader (FLIPR, Molecular Devices, Sunnyvale Calif.). Receptor activation by extracellular calcium results in the release of calcium from intracellular stores into the cytosol. A fluorescent indicator (Fluo-4) is internalized by the cells from growth media and interacts with calcium released into the cytosol to provide a means of quantifying intracellular Ca^2+ levels and receptor agonism/antagonism. Fluorescence intensity is detected by the FLIPR CCD camera and traced as a function of time. Potential antagonists are identified by their ability to decrease this fluorescent response.
Prior to the addition of test compound cells are washed with a 10 mM HEPES buffer solution. The test compound, for example the compound of Example 1, is added at various doses (from 1 µM to 3 nM) and pre-incubated with cells for 30 minutes followed by stimulation of the CasR by the addition of 1.7 mM Ca^2+. IC50 values are based on the ability of the cells to inhibit the Ca^2+ induced increase in intracellular Ca^2+. Fluorescence signal is read 42 seconds after the stimulation of the CasR by the addition of 1.7 mM Ca^2+.
The following table provides FLIPR IC50 data for the specified Examples. The IC50s are reported as micromolar concentration with n being the number of times the particular compound was assayed.

| SMILES | IC50 |
| --- | --- |
| CC(C)c1nc2ccnc(C(F)(F)F)c2c(=O)n1CCc1ccccc1 [Example 58, 2-isopropyl-3-phenethyl-5-(trifluoromethyl)pyrido[4,3-d]pyrimidin-4(3H)-one] | 4680 nM |
| O=c1c2c(C(F)(F)F)nccc2nc(C2CCCC2)n1CCc1ccccc1 [Example 59, 2-cyclopentyl-3-phenethyl-5-(trifluoromethyl)pyrido[4,3-d]pyrimidin-4(3H)-one] | 7790 nM |
| COc1ccccc1CCn1c(-c2cscn2)nc2ccnc(C(F)(F)F)c2c1=O [Example 60, 3-(2-methoxyphenethyl)-2-(thiazol-4-yl)-5-(trifluoromethyl)pyrido[4,3-d]pyrimidin-4(3H)-one] | 23200 nM |
| N#Cc1ccccc1-c1nc2ccnc(C(F)(F)F)c2c(=O)n1CCC1CCCCC1 [Example 62, 2-(3-(2-cyclohexylethyl)-4-oxo-5-(trifluoromethyl)-3,4-dihydropyrido[4,3-d]pyrimidin-2-yl)benzonitrile] | 4630 nM |
| CS(=O)(=O)Nc1cccnc1-c1nc2ccnc(C(F)(F)F)c2c(=O)n1CCc1ccccc1 [Example 64, N-(2-(4-oxo-3-phenethyl-5-(trifluoromethyl)-3,4-dihydropyrido[4,3-d]pyrimidin-2-yl)pyridin-3-yl)methanesulfonamide] | 61800 nM |
| CC(Cc1ccccc1F)n1c(-c2cscn2)nc2ccnc(C(F)(F)F)c2c1=O (stereo not shown) [Example 65, 3-(1-(2-fluorophenyl)propan-2-yl)-2-(thiazol-4-yl)-5-(trifluoromethyl)pyrido[4,3-d]pyrimidin-4(3H)-one] | 10500 nM |
| CC(C)CCn1c(-c2ncccc2O)nc2ccnc(C(F)(F)F)c2c1=O [Example 66, 2-(3-hydroxypyridin-2-yl)-3-isopentyl-5-(trifluoromethyl)pyrido[4,3-d]pyrimidin-4(3H)-one] | 36200 nM |
| O=c1c2c(C(F)(F)F)nccc2nc(-c2ncccc2O)n1CC1CCOCC1 [Example 67, 2-(3-hydroxypyridin-2-yl)-3-((tetrahydro-2H-pyran-4-yl)methyl)-5-(trifluoromethyl)pyrido[4,3-d]pyrimidin-4(3H)-one] | > 1000 nM |
| O=c1c2c(C(F)(F)F)nccc2nc(-c2ncccc2O)n1CCC1CCOCC1 [Example 68, 2-(3-hydroxypyridin-2-yl)-3-(2-(tetrahydro-2H-pyran-4-yl)ethyl)-5-(trifluoromethyl)pyrido[4,3-d]pyrimidin-4(3H)-one] | > 1000 nM |
| COc1ccc(F)c(CCn2c(-c3ncccc3O)nc3ccnc(C(F)(F)F)c3c2=O)c1 [Example 69, 3-(2-fluoro-5-methoxyphenethyl)-2-(3-hydroxypyridin-2-yl)-5-(trifluoromethyl)pyrido[4,3-d]pyrimidin-4(3H)-one] | 66900 nM |
| COc1cccc(CCn2c(-c3ncccc3O)nc3ccnc(C(F)(F)F)c3c2=O)c1F [Example 70, 3-(2-fluoro-3-methoxyphenethyl)-2-(3-hydroxypyridin-2-yl)-5-(trifluoromethyl)pyrido[4,3-d]pyrimidin-4(3H)-one] | 61900 nM |
| O=c1c2c(C(F)(F)F)nccc2nc(-c2ncccc2O)n1C1CCCCC1 [Example 74, 3-cyclohexyl-2-(3-hydroxypyridin-2-yl)-5-(trifluoromethyl)pyrido[4,3-d]pyrimidin-4(3H)-one] | 47800 nM |
| O=c1c2c(C(F)(F)F)nccc2nc(-c2ncccc2C(F)(F)F)n1CCc1ccccc1 [Example 76, 3-Phenethyl-5-trifluoromethyl-2-(3-trifluoromethyl-pyridin-2-yl)-3H-pyrido[4,3-d]pyrimidin-4-one] | 6300 nM |
| Nc1scnc1-c1nc2ccnc(C(F)(F)F)c2c(=O)n1CCc1ccccc1 [Example 78, 2-(5-aminothiazol-4-yl)-3-phenethyl-5-(trifluoromethyl)pyrido[4,3-d]pyrimidin-4(3H)-one] | 9830 nM |
| O=c1c2c(C(F)(F)F)nccc2nc(-c2ccccc2C(F)(F)F)n1CCC1CCCCC1 [Example 81, 3-(2-cyclohexylethyl)-5-(trifluoromethyl)-2-(2-(trifluoromethyl)phenyl)pyrido[4,3-d]pyrimidin-] | 7890 nM |

Results, then the compound that gave them:

| IC50 | SMILES |
| --- | --- |
| 710 nM | O=c1c2c(C(F)(F)F)nccc2nc(-c2cscn2)n1CCc1ccccc1 [Example 54, 3-phenethyl-2-(thiazol-4-yl)-5-(trifluoromethyl)pyrido[4,3-d]pyrimidin-4(3H)-one] |
| 720 nM | COc1ccccc1CCn1c(-c2ccccc2O)nc2ccnc(C(F)(F)F)c2c1=O [Example 55, 3-(2-methoxyphenethyl)-2-(2-hydroxyphenyl)-5-(trifluoromethyl)pyrido[4,3-d]pyrimidin-4(3H)-one] |
| 1540 nM | O=c1c2c(C(F)(F)F)nccc2nc(-c2cscn2)n1CCc1ccccc1F [Example 56, 3-(2-fluorophenethyl)-2-(thiazol-4-yl)-5-(trifluoromethyl)pyrido[4,3-d]pyrimidin-4(3H)-one] |
| 1670 nM | C[C@H](Cc1ccccc1)n1c(C2CCCC2)nc2ccnc(C(F)(F)F)c2c1=O [Example 57, (R)-2-cyclopentyl-3-(1-phenylpropan-2-yl)-5-(trifluoromethyl)pyrido[4,3-d]pyrimidin-4(3H)-one] |
| 500 nM | O=c1c2c(C(F)(F)F)nccc2nc(-c2cscn2)n1CCC1CCCCC1 [Example 61, 3-(2-cyclohexylethyl)-2-(thiazol-4-yl)-5-(trifluoromethyl)pyrido[4,3-d]pyrimidin-4(3H)-one] |
| 770 nM | Nc1cccnc1-c1nc2ccnc(C(F)(F)F)c2c(=O)n1CCc1ccccc1 [Example 63, 2-(3-aminopyridin-2-yl)-3-phenethyl-5-(trifluoromethyl)pyrido[4,3-d]pyrimidin-4(3H)-one] |
| 420 nM | N#Cc1ccccc1-c1nc2cccc(C(F)(F)F)c2c(=O)n1CCc1ccccc1F [Example 71, 2-(3-(2-fluorophenethyl)-4-oxo-5-(trifluoromethyl)-3,4-dihydroquinazolin-2-yl)benzonitrile] |
| 940 nM | O=C(Nc1cccnc1-c1nc2ccnc(C(F)(F)F)c2c(=O)n1CCc1ccccc1F)C(F)(F)F [Example 72, N-(2-(3-(2-fluorophenethyl)-4-oxo-5-(trifluoromethyl)-3,4-dihydropyrido[4,3-d]pyrimidin-2-yl)pyridin-3-yl)-2,2,2-trifluoroacetamide] |
| 200 nM | C[C@H](Cc1ccccc1)n1c(-c2ncccc2NC(=O)C(F)(F)F)nc2ccnc(C(F)(F)F)c2c1=O [Example 73, (R)-2,2,2-trifluoro-N-(2-(4-oxo-3-(1-phenylpropan-2-yl)-5-(trifluoromethyl)-3,4-dihydropyrido[4,3-d]pyrimidin-2-VI)pyridin-3-VI)acetamide] |
| 700 nM | C[C@H](Cc1ccccc1)n1c(-c2ncccc2C(F)(F)F)nc2ccnc(C(F)(F)F)c2c1=O [Example 77] |
| 390 nM | O=c1c2c(C(F)(F)F)nccc2nc(-c2ccccc2C(F)F)n1CCc1ccccc1 [Example 79, 2-(2-(difluoromethyl)phenyl)-3-phenethyl-5-(trifluoromethyl)pyrido[4,3-d]pyrimidin-4(3H)-one] |
| 300 nM | O=c1c2c(C(F)(F)F)nccc2nc(-c2ncccc2C(F)F)n1CCc1ccccc1 [Example 80, 2-(3-(difluoromethyl)pyridin-2-yl)-3-phenethyl-5-(trifluoromethyl)pyrido[4,3-d]pyrimidin-4(3H)-one] |
| 2530 nM | O=c1c2c(C(F)(F)F)nccc2nc(-c2ncccc2C(F)(F)F)n1CCC1CCCCC1 [Example 82, 3-(2-cyclohexylethyl)-5-(trifluoromethyl)-2-(3-(trifluoromethyl)pyridin-2-yl)pyrido[4,3-d]pyrimidin-4(3H)-one] |
